Measurements as given in patent US20240358693A1, “METHODS OF TREATING PAIN” (Aisa Pharma, Inc., priority 2023, published 2024).

System: participants with SSc-RP
Experiment: Scleroderma Health Assessment Questionnaire (SHAQ): disability indices and visual analog scales
Type: in vivo, human
Settings: Part A, sensitivity analysis
Excerpt: The standard, validated, patient reported outcome measures tool for SSc patients, the Scleroderma Health Assessment Questionnaire (SHAQ), will be used to assess the participant qualify of life. Details are attached in the Appendix. The participant quality of life will be scored, and a disability index calculated for each questionnaire completed by the patient at Screening and each in-clinic visit. The absolute change in participant quality of life from baseline to the end of each dosing period will be calculated similar to frequency data as before.
The SHAQ includes a Raynaud's VAS, which will be reported at screening and each in-clinic visit. The absolute change in Raynaud-VAS, assessed by the participants response to the SHAQ question ‘In the past 7 days, how much have your Raynaud's interfered with your daily activities?’ at baseline and the end of each dosing period will be calculated similar to frequency data as before.
The SHAQ is used to calculate a Disability Index to assess the participant qualify of life. The eight categories assessed by the Disability Index are 1) dressing and grooming, 2) arising, 3) eating, 4) walking, 5) hygiene, 6) reach, 7) grip, and 8) common daily activities. For each of these categories, patients report the amount of difficulty they have in performing two or three specific activities.
There are four possible responses for the Disability Index questions: • Without any difficulty=0 • With some difficulty=1 • With much difficulty=2 • Unable to do=3. • The highest score reported by the patient for any component question of the eight categories determines the score for that category. • If a component question is left blank or the response is too ambiguous to assign a score, then the score for that category is determined by the remaining completed question(s). • If all component questions are blank or if more than one answer is given, then follow up with the respondent is required. • If the respondent's mark is between the response columns, then move it to the closest one. If it's directly between the two, move it to the higher one.
Each of the disability items on the SHAQ has a companion aids/devices variable that is used to record what type(s) of assistance, if any, the participant uses for his/her usual activities. These variables (see below) are coded as follows: • 0=No assistance is needed. • 1=A special device is used by the patient in his/her usual activities. • 2=The patient usually needs help from another person. • 3=The patient usually needs BOTH a special device AND help from another person.
The scoring variables and scoring rules permit the computation of two disability indices, the Standard Disability Index and the Alternative Disability Index.
This question results in a new set of category scores that are computed by adjusting the score for each category, if necessary, based on the patient's use of an aid or device or assistance for that category. If either devices and/or help from another person are checked for a category, the score is set to “2”, unless the score is already “3” (i.e., scores of “0” or “1” are increased to “2”). For example, if the highest score for the dressing category is “1”, and the patient says they use a device for dressing, the computed category score would be “2”. The sum of the computed categories scores is then calculated and divided by the number of categories answered. This gives a score in the 0 to 3 range.
The aid and device variables are not used to calculate the alternative disability index; it is calculated by adding the scores for each of the categories and dividing by the number of categories answered. This gives a score in the 0 to 3 range.
The standard, validated, patient reported outcome measures tool for SSc patients, the SHAQ, was collected at the time points specified in the study schedules (FIG. 2 and FIGS. 4A and 4B) to assess the participant's quality of life. The SHAQ included a Raynaud's VAS that will also be reported separately.

[1] = PP Population, cilnidipine 10 mg and/or tadalafil 5 mg as labelled
[2] = PP Population, cilnidipine 20 mg, plus tadalafil 5 mg where labelled
[3] = PP Population, pooled cilnidipine 10 mg and 20 mg arms (plus tadalafil 5 mg where labelled)
[4] = Pooled Cilnidipine 10 mg and Cilnidipine 10 mg + Tadalafil 5 mg (N = 9), Modified ITT

## COCCOC(=O)C1=C(C)NC(C)=C(C(=O)OC/C=C/c2ccccc2)C1c1cccc([N+](=O)[O-])c1 (stereo not drawn) [Cilnidipine, cilnidipine]
[1]
  SHAQ Visual Analogue Scale - Intestinal Problems: Change from Baseline (Day 12), Median: −1.550
  SHAQ Visual Analogue Scale - Intestinal Problems: In-Clinic Visit (Day 12), Mean: 1.100
  SHAQ Visual Analogue Scale - Intestinal Problems: In-Clinic Visit (Day 12), Median: 0.300
  SHAQ Visual Analogue Scale - Intestinal Problems: Percent Change from Baseline (Day 12), Mean: −77.37%
  SHAQ Visual Analogue Scale - Intestinal Problems: Percent Change from Baseline (Day 12), Median: −88.00%
  SHAQ Visual Analogue Scale - Overall Disease Severity: Baseline, Mean: 2.725
  SHAQ Visual Analogue Scale - Overall Disease Severity: Baseline, Median: 1.900
  SHAQ Visual Analogue Scale - Overall Disease Severity: Change from Baseline (Day 12), Mean: −0.900
  SHAQ Visual Analogue Scale - Overall Disease Severity: Change from Baseline (Day 12), Median: −0.950
  SHAQ Visual Analogue Scale - Overall Disease Severity: In-Clinic Visit (Day 12), Mean: 1.825
  SHAQ Visual Analogue Scale - Overall Disease Severity: In-Clinic Visit (Day 12), Median: 1.050
  SHAQ Visual Analogue Scale - Overall Disease Severity: Percent Change from Baseline (Day 12), Mean: −56.96%
  SHAQ Visual Analogue Scale - Overall Disease Severity: Percent Change from Baseline (Day 12), Median: −44.12%
  SHAQ Visual Analogue Scale - Raynaud's: Baseline, Mean: 1.600
  SHAQ Visual Analogue Scale - Raynaud's: Baseline, Median: 1.000
  SHAQ Visual Analogue Scale - Raynaud's: Change from Baseline (Day 12), Mean: 0.325
  SHAQ Visual Analogue Scale - Raynaud's: Change from Baseline (Day 12), Median: 0.350
  SHAQ Visual Analogue Scale - Raynaud's: In-Clinic Visit (Day 12), Mean: 1.925
  SHAQ Visual Analogue Scale - Raynaud's: In-Clinic Visit (Day 12), Median: 1.700
  SHAQ Visual Analogue Scale - Raynaud's: Percent Change from Baseline (Day 12), Mean: 11.36%
  SHAQ Visual Analogue Scale - Raynaud's: Percent Change from Baseline (Day 12), Median: −2.27%
[2]
  SHAQ Visual Analogue Scale - Breathing Problems: Baseline, Mean: 1.325
  SHAQ Visual Analogue Scale - Breathing Problems: Baseline, Median: 1.550
  SHAQ Visual Analogue Scale - Breathing Problems: Change from Baseline (Day 12), Mean: −0.475
  SHAQ Visual Analogue Scale - Breathing Problems: Change from Baseline (Day 12), Median: −0.250
  SHAQ Visual Analogue Scale - Breathing Problems: In-Clinic Visit (Day 12), Mean: 0.850
  SHAQ Visual Analogue Scale - Breathing Problems: In-Clinic Visit (Day 12), Median: 0.450
  SHAQ Visual Analogue Scale - Breathing Problems: Percent Change from Baseline (Day 12), Mean: 3.73%
  SHAQ Visual Analogue Scale - Breathing Problems: Percent Change from Baseline (Day 12), Median: −17.54%
  SHAQ Visual Analogue Scale - Finger Ulcers: Baseline, Mean: 1.800
  SHAQ Visual Analogue Scale - Finger Ulcers: Baseline, Median: 0.300
  SHAQ Visual Analogue Scale - Finger Ulcers: Change from Baseline (Day 12), Mean: −0.933
  SHAQ Visual Analogue Scale - Finger Ulcers: Change from Baseline (Day 12), Median: 0.000
  SHAQ Visual Analogue Scale - Finger Ulcers: In-Clinic Visit (Day 12), Mean: 0.650
  SHAQ Visual Analogue Scale - Finger Ulcers: In-Clinic Visit (Day 12), Median: 0.350
  SHAQ Visual Analogue Scale - Finger Ulcers: Percent Change from Baseline (Day 12), Mean: 35.29%
  SHAQ Visual Analogue Scale - Finger Ulcers: Percent Change from Baseline (Day 12), Median: 35.29%
  SHAQ Visual Analogue Scale - Intestinal Problems: Baseline, Mean: 0.700
  SHAQ Visual Analogue Scale - Intestinal Problems: Baseline, Median: 0.650
  SHAQ Visual Analogue Scale - Intestinal Problems: Change from Baseline (Day 12), Mean: 0.150
  SHAQ Visual Analogue Scale - Intestinal Problems: Change from Baseline (Day 12), Median: 0.150
  SHAQ Visual Analogue Scale - Intestinal Problems: In-Clinic Visit (Day 12), Mean: 0.850
  SHAQ Visual Analogue Scale - Intestinal Problems: In-Clinic Visit (Day 12), Median: 0.650
  SHAQ Visual Analogue Scale - Intestinal Problems: Percent Change from Baseline (Day 12), Mean: −10.00%
  SHAQ Visual Analogue Scale - Intestinal Problems: Percent Change from Baseline (Day 12), Median: 30.00%
  SHAQ Visual Analogue Scale - Overall Disease Severity: Baseline, Mean: 3.125
  SHAQ Visual Analogue Scale - Overall Disease Severity: Baseline, Median: 2.950
  SHAQ Visual Analogue Scale - Overall Disease Severity: Change from Baseline (Day 12), Mean: −2.000
  SHAQ Visual Analogue Scale - Overall Disease Severity: Change from Baseline (Day 12), Median: −1.700
  SHAQ Visual Analogue Scale - Overall Disease Severity: In-Clinic Visit (Day 12), Mean: 1.125
  SHAQ Visual Analogue Scale - Overall Disease Severity: In-Clinic Visit (Day 12), Median: 1.300
  SHAQ Visual Analogue Scale - Overall Disease Severity: Percent Change from Baseline (Day 12), Mean: −64.20%
  SHAQ Visual Analogue Scale - Overall Disease Severity: Percent Change from Baseline (Day 12), Median: −64.44%
  SHAQ Visual Analogue Scale - Raynaud's: Baseline, Mean: 3.075
  SHAQ Visual Analogue Scale - Raynaud's: Baseline, Median: 3.000
  SHAQ Visual Analogue Scale - Raynaud's: Change from Baseline (Day 12), Mean: −1.200
  SHAQ Visual Analogue Scale - Raynaud's: Change from Baseline (Day 12), Median: −1.050
  SHAQ Visual Analogue Scale - Raynaud's: In-Clinic Visit (Day 12), Mean: 1.875
  SHAQ Visual Analogue Scale - Raynaud's: In-Clinic Visit (Day 12), Median: 1.250
  SHAQ Visual Analogue Scale - Raynaud's: Percent Change from Baseline (Day 12), Mean: −41.11%
  SHAQ Visual Analogue Scale - Raynaud's: Percent Change from Baseline (Day 12), Median: −38.67%
[3]
  SHAQ Alternative Disability Index: Baseline, Mean: 0.359
  SHAQ Alternative Disability Index: Baseline, Median: 0.250
  SHAQ Alternative Disability Index: Change from Baseline (Day 12), Mean: 0.031
  SHAQ Alternative Disability Index: Change from Baseline (Day 12), Median: 0.000
  SHAQ Alternative Disability Index: In-Clinic Visit (Day 12), Mean: 0.391
  SHAQ Alternative Disability Index: In-Clinic Visit (Day 12), Median: 0.188
  SHAQ Alternative Disability Index: Percent Change from Baseline (Day 12), Mean: 9.68%
  SHAQ Alternative Disability Index: Percent Change from Baseline (Day 12), Median: −11.11%
[4]
  SHAQ Standard Disability Index: Baseline, Mean: 0.597
  SHAQ Standard Disability Index: Baseline, Median: 0.500
  SHAQ Standard Disability Index: Change from Baseline, Mean: −0.021
  SHAQ Standard Disability Index: Change from Baseline, Median: 0.000
  SHAQ Standard Disability Index: Day 12, Mean: 0.576
  SHAQ Standard Disability Index: Day 12, Median: 0.375
  SHAQ Standard Disability Index: Percent Change from Baseline, Mean: 7.50%
  SHAQ Standard Disability Index: Percent Change from Baseline, Median: 0.00%
  SHAQ VAS Breathing Problems: Baseline, Mean: 1.511
  SHAQ VAS Breathing Problems: Baseline, Median: 0.800
  SHAQ VAS Breathing Problems: Change from Baseline, Mean: −0.175
  SHAQ VAS Breathing Problems: Change from Baseline, Median: 0.000
  SHAQ VAS Breathing Problems: Day 12, Mean: 1.375
  SHAQ VAS Breathing Problems: Day 12, Median: 0.000
  SHAQ VAS Breathing Problems: Percent Change from Baseline, Mean: −26.05%
  SHAQ VAS Breathing Problems: Percent Change from Baseline, Median: −21.33%
  SHAQ VAS Finger Ulcers: Baseline, Mean: 0.656
  SHAQ VAS Finger Ulcers: Baseline, Median: 0.200
  SHAQ VAS Finger Ulcers: Change from Baseline, Mean: −0.267
  SHAQ VAS Finger Ulcers: Change from Baseline, Median: −0.100
  SHAQ VAS Finger Ulcers: Day 12, Mean: 0.389
  SHAQ VAS Finger Ulcers: Day 12, Median: 0.000
  SHAQ VAS Finger Ulcers: Percent Change from Baseline, Mean: −46.06%
  SHAQ VAS Finger Ulcers: Percent Change from Baseline, Median: −31.94%
  SHAQ VAS Intestinal Problems: Baseline, Mean: 2.444
  SHAQ VAS Intestinal Problems: Baseline, Median: 1.100
  SHAQ VAS Intestinal Problems: Change from Baseline, Mean: −1.228
  SHAQ VAS Intestinal Problems: Change from Baseline, Median: −0.250
  SHAQ VAS Intestinal Problems: Day 12, Mean: 1.217
  SHAQ VAS Intestinal Problems: Day 12, Median: 0.700
  SHAQ VAS Intestinal Problems: Percent Change from Baseline, Mean: −27.93%
  SHAQ VAS Intestinal Problems: Percent Change from Baseline, Median: −54.13%
  SHAQ VAS Overall Disease Severity: Baseline, Mean: 3.044
  SHAQ VAS Overall Disease Severity: Baseline, Median: 1.900
  SHAQ VAS Overall Disease Severity: Change from Baseline, Mean: −0.606
  SHAQ VAS Overall Disease Severity: Change from Baseline, Median: −0.700
  SHAQ VAS Overall Disease Severity: Day 12, Mean: 2.439
  SHAQ VAS Overall Disease Severity: Day 12, Median: 1.900
  SHAQ VAS Overall Disease Severity: Percent Change from Baseline, Mean: −24.68%
  SHAQ VAS Overall Disease Severity: Percent Change from Baseline, Median: −30.93%
  SHAQ VAS Pain: Baseline, Mean: 3.278
  SHAQ VAS Pain: Baseline, Median: 3.100
  SHAQ VAS Pain: Change from Baseline, Mean: −0.633
  SHAQ VAS Pain: Change from Baseline, Median: −0.700
  SHAQ VAS Pain: Day 12, Mean: 2.644
  SHAQ VAS Pain: Day 12, Median: 2.900
  SHAQ VAS Pain: Percent Change from Baseline, Mean: −20.07%
  SHAQ VAS Pain: Percent Change from Baseline, Median: −21.87%
  SHAQ VAS Raynaud's: Baseline, Mean: 2.733
  SHAQ VAS Raynaud's: Baseline, Median: 1.400
  SHAQ VAS Raynaud's: Change from Baseline, Mean: −0.414
  SHAQ VAS Raynaud's: Change from Baseline, Median: −0.100
  SHAQ VAS Raynaud's: Day 12, Mean: 2.319
  SHAQ VAS Raynaud's: Day 12, Median: 2.600
